Measurements taken from patent US20230079819A1, “COMPOUNDS AND USES THEREOF” (Foghorn Therapeutics Inc., priority 2019, published 2023).
Where two headings read alike, the source gives them in different places.

Columns and labels:
[1] = molecular target: T1, BRG-1 (Homo sapiens, UniProt P51532); assay: ATPase catalytic activity of BRG-1, ADP-Glo in vitro biochemical assay; conditions: ATPase catalytic activity, 30 nM BRG-1, 400 μM ATP
T1 construct: made in house; host or cells: High Five insect cells

[2] = molecular target: T2, BRM (Homo sapiens, UniProt P51531); assay: ATPase catalytic activity of BRM, ADP-Glo in vitro biochemical assay; conditions: ATPase catalytic activity, 30 nM BRM, 400 μM ATP
T2 construct: made in house; host or cells: High Five insect cells
T2 sequence (P51531 whole entry): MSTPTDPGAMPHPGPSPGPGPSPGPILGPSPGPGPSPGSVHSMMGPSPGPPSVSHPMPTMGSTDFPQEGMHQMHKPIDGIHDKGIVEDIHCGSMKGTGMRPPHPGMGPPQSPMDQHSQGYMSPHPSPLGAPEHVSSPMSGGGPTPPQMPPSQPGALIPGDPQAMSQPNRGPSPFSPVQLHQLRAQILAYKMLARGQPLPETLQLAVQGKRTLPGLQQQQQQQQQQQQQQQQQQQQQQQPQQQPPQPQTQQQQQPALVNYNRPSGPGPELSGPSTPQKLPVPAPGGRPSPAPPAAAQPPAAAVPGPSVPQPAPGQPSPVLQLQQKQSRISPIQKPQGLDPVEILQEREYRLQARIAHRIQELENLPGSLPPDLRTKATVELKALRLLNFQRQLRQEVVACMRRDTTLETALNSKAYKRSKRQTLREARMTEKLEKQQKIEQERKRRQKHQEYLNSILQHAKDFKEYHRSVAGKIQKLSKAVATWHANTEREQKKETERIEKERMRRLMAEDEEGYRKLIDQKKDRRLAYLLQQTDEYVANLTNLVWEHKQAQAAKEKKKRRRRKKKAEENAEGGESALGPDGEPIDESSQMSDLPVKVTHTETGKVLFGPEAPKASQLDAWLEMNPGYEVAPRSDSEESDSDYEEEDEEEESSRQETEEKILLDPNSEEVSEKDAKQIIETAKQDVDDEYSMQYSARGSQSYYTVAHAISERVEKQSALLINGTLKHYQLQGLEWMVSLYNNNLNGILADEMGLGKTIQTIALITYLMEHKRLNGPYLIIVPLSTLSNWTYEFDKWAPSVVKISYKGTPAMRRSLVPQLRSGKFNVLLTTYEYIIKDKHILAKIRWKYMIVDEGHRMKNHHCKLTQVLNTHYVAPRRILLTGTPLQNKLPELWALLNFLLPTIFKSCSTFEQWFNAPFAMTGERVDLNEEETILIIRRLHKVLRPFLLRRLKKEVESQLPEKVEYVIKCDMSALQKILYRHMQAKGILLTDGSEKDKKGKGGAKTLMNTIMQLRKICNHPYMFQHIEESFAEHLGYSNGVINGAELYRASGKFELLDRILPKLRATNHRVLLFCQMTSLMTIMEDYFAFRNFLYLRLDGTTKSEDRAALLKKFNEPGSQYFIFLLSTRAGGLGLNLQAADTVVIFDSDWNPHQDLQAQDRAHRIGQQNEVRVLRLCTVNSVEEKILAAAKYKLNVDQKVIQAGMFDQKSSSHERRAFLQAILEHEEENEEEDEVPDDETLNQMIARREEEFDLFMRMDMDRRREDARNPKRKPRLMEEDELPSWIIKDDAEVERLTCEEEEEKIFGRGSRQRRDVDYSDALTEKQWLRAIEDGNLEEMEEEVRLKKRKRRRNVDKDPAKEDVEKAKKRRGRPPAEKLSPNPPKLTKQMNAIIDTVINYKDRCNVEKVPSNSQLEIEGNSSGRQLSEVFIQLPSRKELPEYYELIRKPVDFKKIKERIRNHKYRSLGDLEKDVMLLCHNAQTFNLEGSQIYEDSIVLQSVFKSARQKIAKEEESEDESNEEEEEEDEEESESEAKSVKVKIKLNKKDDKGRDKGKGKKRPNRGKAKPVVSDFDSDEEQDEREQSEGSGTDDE

T1 sequence (P51532 whole entry): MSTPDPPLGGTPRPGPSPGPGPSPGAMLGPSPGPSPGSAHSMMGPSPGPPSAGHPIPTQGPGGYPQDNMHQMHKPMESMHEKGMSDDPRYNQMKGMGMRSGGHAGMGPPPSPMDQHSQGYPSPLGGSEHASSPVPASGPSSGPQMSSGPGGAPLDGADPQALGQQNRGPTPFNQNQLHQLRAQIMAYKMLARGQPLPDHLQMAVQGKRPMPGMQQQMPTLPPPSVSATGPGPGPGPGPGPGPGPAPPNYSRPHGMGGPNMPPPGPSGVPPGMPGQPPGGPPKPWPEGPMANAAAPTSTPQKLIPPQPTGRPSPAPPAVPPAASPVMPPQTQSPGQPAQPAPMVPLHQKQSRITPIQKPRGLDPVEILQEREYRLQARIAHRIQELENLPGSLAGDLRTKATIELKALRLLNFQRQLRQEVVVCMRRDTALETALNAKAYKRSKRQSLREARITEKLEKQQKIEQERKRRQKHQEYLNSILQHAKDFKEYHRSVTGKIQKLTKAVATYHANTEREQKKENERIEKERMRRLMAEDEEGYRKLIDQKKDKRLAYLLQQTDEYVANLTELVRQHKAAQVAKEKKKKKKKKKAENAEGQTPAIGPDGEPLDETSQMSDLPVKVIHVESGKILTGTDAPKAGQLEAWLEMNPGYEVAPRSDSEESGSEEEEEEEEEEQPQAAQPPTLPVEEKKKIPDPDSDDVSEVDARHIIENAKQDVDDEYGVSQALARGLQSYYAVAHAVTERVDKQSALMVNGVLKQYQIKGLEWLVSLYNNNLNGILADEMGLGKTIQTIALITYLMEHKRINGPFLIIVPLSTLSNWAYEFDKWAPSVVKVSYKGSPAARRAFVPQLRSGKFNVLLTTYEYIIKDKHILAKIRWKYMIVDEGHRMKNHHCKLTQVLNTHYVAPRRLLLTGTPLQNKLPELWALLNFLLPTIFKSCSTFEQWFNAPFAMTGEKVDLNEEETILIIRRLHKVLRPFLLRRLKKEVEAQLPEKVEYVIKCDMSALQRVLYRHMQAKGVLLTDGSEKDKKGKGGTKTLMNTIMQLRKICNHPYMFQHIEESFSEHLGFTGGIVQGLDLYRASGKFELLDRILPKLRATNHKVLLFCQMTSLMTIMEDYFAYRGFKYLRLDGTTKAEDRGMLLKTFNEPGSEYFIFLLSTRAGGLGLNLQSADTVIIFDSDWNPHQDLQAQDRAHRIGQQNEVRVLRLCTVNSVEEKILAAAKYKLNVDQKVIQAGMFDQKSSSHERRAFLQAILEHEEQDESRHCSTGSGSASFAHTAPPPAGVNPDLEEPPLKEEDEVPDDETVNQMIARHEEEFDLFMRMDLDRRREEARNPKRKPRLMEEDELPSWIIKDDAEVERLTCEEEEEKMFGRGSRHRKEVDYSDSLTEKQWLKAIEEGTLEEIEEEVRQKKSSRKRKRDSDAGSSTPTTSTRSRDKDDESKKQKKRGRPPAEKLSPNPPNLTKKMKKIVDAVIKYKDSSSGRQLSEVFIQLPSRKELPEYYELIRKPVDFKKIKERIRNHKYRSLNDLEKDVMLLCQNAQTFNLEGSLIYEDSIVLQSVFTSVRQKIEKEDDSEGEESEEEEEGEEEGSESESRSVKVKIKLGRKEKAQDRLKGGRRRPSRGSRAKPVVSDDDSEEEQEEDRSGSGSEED

| IC50 ([1]; read-out: BRG1 IP50 (μM)*) [µM] | IC50 ([2]; read-out: BRM IP50 (μM)*) [µM] | IC50 ([1]; read-out: BRG1 IP50) [µM] | IC50 ([2]; read-out: BRM IP50) [µM] | SMILES |
| --- | --- | --- | --- | --- |
| > 0.01 | > 0.01 |  |  | CO[C@@H]1CN(c2cccc(-c3csc(NC(=O)CNC(=O)c4ccn(S(C)(=O)=O)c4)n3)c2)CC[C@@H]1O (racemic) [Compound 158] |
| > 0.01 | > 0.01 |  |  | C[C@H]1C[C@H](C)CN(c2cccc(-c3csc(NC(=O)CNC(=O)c4ccn(S(C)(=O)=O)c4)n3)c2)C1 (racemic) [Compound 187] |
| > 0.01 | > 0.01 |  |  | CO[C@@H]1CN(c2cccc(-c3csc(NC(=O)CNC(=O)c4ccn(S(C)(=O)=O)c4)n3)c2)C[C@H]1OC (racemic) [Compound 198] |
| > 0.1 | > 0.01 |  |  | CO[C@H]1CN(c2cccc(-c3csc(NC(=O)CNC(=O)c4ccn(C(C)(C)C)c4)n3)n2)CC[C@@H]1O (racemic) [Compound 310] |
| < 0.01 | < 0.01 |  |  | C[C@@H]1CC(c2cccc(-c3csc(NC(=O)CNC(=O)c4ccn(S(C)(=O)=O)c4)n3)n2)=C[C@H](C)O1 (racemic) [Compound 350, N-(2-((4-(6-((cis)-2,6-dimethyl-3,6-dihydro-2H-pyran-4-yl)pyridin-2-yl)thiazol-2-yl)amino)-2-oxoethyl)-1-(methylsulfonyl)-1H-pyrrole-3-carboxamide] |
|  |  | < 0.01 | < 0.01 | C[C@@H]1CC(c2cccc(-c3csc(NC(=O)CNC(=O)c4ccn(S(C)(=O)=O)c4)n3)c2)=C[C@H](C)O1 (racemic) [Compound 391] |
|  |  | > 0.01 | > 0.01 | CS(=O)(=O)n1ccc(C(=O)NCC(=O)Nc2nc(-c3cccc([C@@H]4CCCCO4)c3)cs2)c1 (racemic) [Compound 392] |
|  |  | > 0.1 | > 0.1 | CS(=O)(=O)n1ccc(C(=O)NCC(=O)Nc2nc(-c3cccc(N4C[C@H]5C[C@@H]4C[C@H]5O)c3)cs2)c1 (racemic) [Compound 468] |
|  |  | > 0.1 | > 0.01 | CS(=O)(=O)n1ccc(C(=O)NCC(=O)Nc2nc(-c3cccc(N4C[C@H]5C[C@@H]4C[C@@H]5O)c3)cs2)c1 (racemic) [Compound 500] |
|  |  | > 0.01 | > 0.01 | C[C@@H]1CO[C@@H]2CN(c3cccc(-c4csc(NC(=O)CNC(=O)c5ccn(C(C)(C)C)c5)n4)n3)C[C@H]12 (racemic) [Compound 649] |
|  |  | > 0.1 | > 0.01 | CC(C)(C)n1ccc(C(=O)NCC(=O)Nc2nc(-c3cccc(N4CC[C@@H]5CCO[C@H]5C4)n3)cs2)c1 (racemic) [Compound 650] |
|  |  | > 0.1 | > 0.01 | C[C@@H]1CCN(c2cccc(-c3csc(NC(=O)CNC(=O)c4ccn(C(C)(C)C)c4)n3)n2)C[C@H]1F (racemic) [Compound 702, 1-tert-butyl-N-[2-[[4-[6-[(3S,4R)-3-fluoro-4-methyl-1-piperidyl]-2-pyridyl]thiazol-2-yl]amino]-2-oxo-ethyl]pyrrole-3-carboxamide] |
|  |  | > 0.1 | > 0.1 | CC(C)(C)n1ccc(C(=O)NCC(=O)Nc2nc(-c3cccc(N4C[C@H]5CC(F)(F)[C@H]5C4)n3)cs2)c1 (racemic) [Compound 703] |
|  |  | > 0.01 | > 0.01 | C[C@@H]1CN(c2cccc(-c3csc(NC(=O)CNC(=O)c4ccn(C(C)(C)C)c4)n3)n2)C[C@@H]1F (racemic) [Compound 724] |
|  |  | > 0.1 | > 0.01 | C[C@@H]1CN(c2cccc(-c3csc(NC(=O)CNC(=O)c4ccn([C@]5(C)CCOC5)c4)n3)n2)C[C@H](C)O1 (single isomer, unassigned) [Compound 490] |
|  |  | > 0.01 | > 0.01 | C[C@@H]1CN(c2cccc(-c3csc(NC(=O)CNC(=O)c4ccn([C@@]5(C)CCOC5)c4)n3)n2)C[C@H](C)O1 (single isomer, unassigned) [Compound 491] |
| < 0.01 | < 0.01 |  |  | CN(C)Cc1cc(-c2cccc(-c3csc(NC(=O)CNC(=O)c4ccn(S(C)(=O)=O)c4)n3)c2)ccn1 [Compound 1, N-(2-((4-(3-(2-((dimethylamino)methyl)pyridin-4-yl)phenyl)thiazol-2-yl)amino)-2-oxoethyl)-1-(methylsulfonyl)-1H-pyrrole-3-carboxamide] |

| IC50 ([1]; read-out: BRG1 IP50 (μM)*) [µM] | IC50 ([2]; read-out: BRM IP50 (μM)*) [µM] | IC50 ([1]; read-out: BRG1 IP50) [µM] | IC50 ([2]; read-out: BRM IP50) [µM] | SMILES |
| --- | --- | --- | --- | --- |
| > 0.01 | > 0.01 |  |  | CC(C)n1ccc(C(=O)NCC(=O)Nc2nc(-c3cccc(-c4ccn(C)n4)c3)cs2)c1 [Compound 2, 1-isopropyl-N-(2-((4-(3-(1-methyl-1H-pyrazol-3-yl)phenyl)thiazol-2-yl)amino)-2-oxoethyl)-1H-pyrrole-3-carboxamide] |
| > 1 | > 1 |  |  | CC(C)(C)n1cnc(C(=O)NCC(=O)Nc2nc(-c3cccc(C#N)c3)cs2)c1 [Compound 3, 1-(tert-butyl)-N-(2-((4-(3-cyanophenyl)thiazol-2-yl)amino)-2-oxoethyl)-1H-imidazole-4-carboxamide] |
| > 0.1 | > 0.1 |  |  | CS(=O)(=O)n1ccc(C(=O)NCC(=O)Nc2nc(-c3cnn(-c4ccncc4)c3)cs2)c1 [Compound 6, 1-(methylsulfonyl)-N-(2-oxo-2-((4-(1-(pyridin-4-yl)-1H-pyrazol-4-yl)thiazol-2-yl)amino)ethyl)-1H-pyrrole-3-carboxamide] |
| > 0.01 | > 0.01 |  |  | CN1CCc2ccc(-c3csc(NC(=O)CNC(=O)c4ccn(C(C)(C)C)c4)n3)cc2C1=O [Compound 7, 1-(tert-butyl)-N-(2-((4-(2-methyl-1-oxo-1,2,3,4-tetrahydroisoquinolin-7-yl)thiazol-2-yl)amino)-2-oxoethyl)-1H-pyrrole-3-carboxamide] |
| > 0.01 | > 0.01 |  |  | CC(C)(O)Cn1ccc(-c2cccc(-c3csc(NC(=O)CNC(=O)c4ccn(C(C)(C)C)c4)n3)c2)n1 [Compound 8, 1-(tert-butyl)-N-(2-((4-(3-(1-(2-hydroxy-2-methylpropyl)-1H-pyrazol-3-yl)phenyl)thiazol-2-yl)amino)-2-oxoethyl)-1H-pyrrole-3-carboxamide] |
| < 0.01 | < 0.01 |  |  | CS(=O)(=O)n1ccc(C(=O)NCC(=O)Nc2nc(-c3cccc(-c4ccnc(N)c4)c3)cs2)c1 [Compound 9, N-(2-((4-(3-(2-aminopyridin-4-yl)phenyl)thiazol-2-yl)amino)-2-oxoethyl)-1-(methylsulfonyl)-1H-pyrrole-3-carboxamide] |
| < 0.01 | < 0.01 |  |  | C[C@@H]1CN(c2cccc(-c3csc(NC(=O)CNC(=O)c4ccn(S(C)(=O)=O)c4)n3)c2)C[C@H](C)O1 [Compound 10] |
| > 0.01 | > 0.01 |  |  | CO[C@H]1CCCN(c2cccc(-c3csc(NC(=O)CNC(=O)c4ccn(S(C)(=O)=O)c4)n3)c2)C1 [Compound 11, (S)—N-(2-((4-(3-(3-methoxypiperidin-1-yl)phenyl)thiazol-2-yl)amino)-2-oxoethyl)-1-(methylsulfonyl)-1H-pyrrole-3-carboxamide] |
| > 0.01 | > 0.01 |  |  | Cn1c(=O)ccc2ccc(-c3csc(NC(=O)CNC(=O)c4ccn(S(C)(=O)=O)c4)n3)cc21 [Compound 12, N-(2-((4-(1-methyl-2-oxo-1,2-dihydroquinolin-7-yl)thiazol-2-yl)amino)-2-oxoethyl)-1-(methylsulfonyl)-1H-pyrrole-3-carboxamide] |
| > 0.01 | > 0.01 |  |  | CN(C)C(=O)CN(C)c1cc(-c2cccc(-c3csc(NC(=O)CNC(=O)c4ccn(S(C)(=O)=O)c4)n3)c2)ccn1 [Compound 13, N-(2-((4-(3-(2-((2-(dimethylamino)-2-oxoethyl)(methyl)amino)pyridin-4-yl)phenyl)thiazol-2-yl)amino)-2-oxoethyl)-1-(methylsulfonyl)-1H-pyrrole-3-carboxamide] |
| < 0.01 | < 0.01 |  |  | CS(=O)(=O)n1ccc(C(=O)NCC(=O)Nc2nc(-c3cccc(-c4ccnc(C5(C(=O)O)CC5)c4)c3)cs2)c1 [Compound 14, 1-(4-(3-(2-(2-(1-(methylsulfonyl)-1H-pyrrole-3-carboxamido)acetamido)thiazol-4-yl)phenyl)pyridin-2-yl)cyclopropanecarboxylic acid] |
| < 0.01 | < 0.01 |  |  | CN(CC(=O)O)c1cc(-c2cccc(-c3csc(NC(=O)CNC(=O)c4ccn(S(C)(=O)=O)c4)n3)c2)ccn1 [Compound 15, 2-(methyl(4-(3-(2-(2-(1-(methylsulfonyl)-1H-pyrrole-3-carboxamido)acetamido)thiazol-4-yl)phenyl)pyridin-2-yl)amino)acetic acid] |
| < 0.01 | < 0.01 |  |  | CNC(=O)CN(C)c1cc(-c2cccc(-c3csc(NC(=O)CNC(=O)c4ccn(S(C)(=O)=O)c4)n3)c2)ccn1 [Compound 16, N-(2-((4-(3-(2-(methyl(2-(methylamino)-2-oxoethyl)amino)pyridin-4-yl)phenyl)thiazol-2-yl)amino)-2-oxoethyl)-1-(methylsulfonyl)-1H-pyrrole-3-carboxamide] |
| > 0.01 | > 0.01 |  |  | Cc1nc(-c2cccc(-c3csc(NC(=O)CNC(=O)c4ccn(S(C)(=O)=O)c4)n3)c2)c[nH]1 [Compound 17] |
| > 0.01 | > 0.01 |  |  | Cn1cnc(-c2cccc(-c3csc(NC(=O)CNC(=O)c4ccn(S(C)(=O)=O)c4)n3)c2)c1 [Compound 18, N-(2-((4-(3-(1-methyl-1H-imidazol-4-yl)phenyl)thiazol-2-yl)amino)-2-oxoethyl)-1-(methylsulfonyl)-1H-pyrrole-3-carboxamide] |
| > 0.01 | > 0.01 |  |  | CN1CCN(c2cc(-c3cccc(-c4csc(NC(=O)CNC(=O)c5ccn(S(C)(=O)=O)c5)n4)c3)ccn2)CC1 [Compound 19, N-(2-((4-(3-(2-(4-methylpiperazin-1-yl)pyridin-4-yl)phenyl)thiazol-2-yl)amino)-2-oxoethyl)-1-(methylsulfonyl)-1H-pyrrole-3-carboxamide] |
| > 0.01 | > 0.01 |  |  | CN(C)CCNc1cc(-c2cccc(-c3csc(NC(=O)CNC(=O)c4ccn(S(C)(=O)=O)c4)n3)c2)ccn1 [Compound 20, N-(2-((4-(3-(2-((2-(dimethylamino)ethyl)amino)pyridin-4-yl)phenyl)thiazol-2-yl)amino)-2-oxoethyl)-1-(methylsulfonyl)-1H-pyrrole-3-carboxamide] |
